Reference: ChEMBL document CHEMBL1128961 (Bioorg Med Chem Lett, 1996)

target: T1, Acetylcholinesterase (Bos taurus) (UniProt P23795)
T1 sequence (whole entry): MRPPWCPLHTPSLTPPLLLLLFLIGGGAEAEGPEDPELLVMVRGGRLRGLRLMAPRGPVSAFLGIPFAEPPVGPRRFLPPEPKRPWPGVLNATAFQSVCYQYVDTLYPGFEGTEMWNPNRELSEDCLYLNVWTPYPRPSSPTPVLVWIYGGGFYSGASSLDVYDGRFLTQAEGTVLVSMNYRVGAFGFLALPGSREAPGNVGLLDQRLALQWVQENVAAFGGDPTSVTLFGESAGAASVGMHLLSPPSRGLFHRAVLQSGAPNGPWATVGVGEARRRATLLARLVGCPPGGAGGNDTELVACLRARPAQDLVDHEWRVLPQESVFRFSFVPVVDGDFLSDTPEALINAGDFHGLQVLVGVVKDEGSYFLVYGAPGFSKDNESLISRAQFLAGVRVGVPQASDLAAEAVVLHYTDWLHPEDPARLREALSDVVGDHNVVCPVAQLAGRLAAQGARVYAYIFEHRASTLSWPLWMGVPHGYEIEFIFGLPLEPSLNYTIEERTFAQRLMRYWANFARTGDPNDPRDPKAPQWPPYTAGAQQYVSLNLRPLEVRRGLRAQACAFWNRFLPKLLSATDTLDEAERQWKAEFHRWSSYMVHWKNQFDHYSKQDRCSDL
Description: Kinetic constant for inhibition of fetal bovine serum acetylcholinesterase

SMILES	k off [s⁻¹]
C/C=C1\C2C=C(C)C[C@]1(N)c1ccc(O)nc1C2(C)C (mixture of isomers)	0.000217
C/C=C1\[C@H]2C=C(C)C[C@]1(N)c1ccc(=O)[nH]c1C2 (stereo in doubt; form 2)	0.000334
C/C=C1\[C@H]2C=C(C)C[C@]1(N)c1ccc(=O)[nH]c1C2 (stereo in doubt; form 1)	0.000367

target: T2, Acetylcholinesterase (Bos taurus, UniProt P23795); test: Dissociation constant for the inhibition of fetal bovine serum acetylcholinesterase was determined..
T2 sequence (P23795 whole entry): T1 sequence (whole entry)

SMILES	Ki [µM]
C/C=C1\C2C=C(C)C[C@]1(N)c1ccc(O)nc1C2(C)C (mixture of isomers)	0.0167
C/C=C1\[C@H]2C=C(C)C[C@]1(N)c1ccc(=O)[nH]c1C2 (stereo in doubt; form 1) [HUPERZINE A]	0.0236
C/C=C1\[C@H]2C=C(C)C[C@]1(N)c1ccc(=O)[nH]c1C2 (stereo in doubt; form 2) [HUPERZINE A]	0.0059
